Experiments:
RARγ [1] = molecular target: T1, RARγ (Homo sapiens, UniProt P13631); test: chimeric receptor transactivation assay, RARγ; type: cell-based; settings: EC50 line of EC50/(EFFICACY)/Kd, read-out: RAR γ EC50
T1 sequence (P13631 185-454 limits assumed): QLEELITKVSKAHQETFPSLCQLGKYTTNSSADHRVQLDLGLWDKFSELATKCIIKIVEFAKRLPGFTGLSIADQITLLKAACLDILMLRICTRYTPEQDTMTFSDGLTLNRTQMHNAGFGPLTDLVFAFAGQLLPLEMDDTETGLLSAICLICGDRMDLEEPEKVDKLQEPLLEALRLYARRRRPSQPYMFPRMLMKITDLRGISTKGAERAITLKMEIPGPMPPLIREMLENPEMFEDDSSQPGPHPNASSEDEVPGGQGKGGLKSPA
Description: (§1) Assays described below measure the ability of a compound to bind to, and/or activate various retinoid receptor subtypes. When in these assays a compound binds to a given receptor subtype and activates the transcription of a reporter gene through that subtype, then the compound is considered an agonist of that receptor subtype. […] In the below described assays the ability of the compounds to bind to RARα, RARβ, RARγ, RXRα, RXRβ and RXRγ receptors, and the ability or inability of the compounds to activate transcription of a reporter gene through these receptor subtypes can be tested.
(§2) The results obtained in this assay are expressed in EC50 numbers, as they are also in the chimeric receptor transactivation assay. The results of ligand binding assay are expressed in Kd numbers.

RARγ [2] = molecular target: T2, RARγ (Homo sapiens, UniProt P13631); test: ligand binding assay, RARγ; settings: Kd line of EC50/(EFFICACY)/Kd, K = thousand, read-out: RAR γ Kd
T2 sequence (P13631 1-454): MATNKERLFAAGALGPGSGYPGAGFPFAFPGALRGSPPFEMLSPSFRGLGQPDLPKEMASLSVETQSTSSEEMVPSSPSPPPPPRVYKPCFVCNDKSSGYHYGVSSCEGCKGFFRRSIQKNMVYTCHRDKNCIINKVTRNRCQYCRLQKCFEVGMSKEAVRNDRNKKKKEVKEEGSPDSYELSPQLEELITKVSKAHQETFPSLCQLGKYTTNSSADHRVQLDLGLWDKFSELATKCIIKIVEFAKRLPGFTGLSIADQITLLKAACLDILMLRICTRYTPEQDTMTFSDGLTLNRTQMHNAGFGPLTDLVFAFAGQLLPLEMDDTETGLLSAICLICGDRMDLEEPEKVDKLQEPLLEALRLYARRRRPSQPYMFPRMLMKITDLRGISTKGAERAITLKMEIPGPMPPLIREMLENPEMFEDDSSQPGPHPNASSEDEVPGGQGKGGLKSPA
Description: as §1, §2

SMILES: CC1(C)CC(C)(C)c2cc(C#Cc3ccc(C(=O)O)cc3)ccc2O1 [Compound 201]
- EC50 (RARγ [1]): 180 nM
- Kd (RARγ [2]): 4390 nM
